Values of other authors, collected in patent US9714271B2 (ContraVir Pharmaceuticals, Inc., priority 2010, dated 2017).

Target: CyP-A (Homo sapiens, UniProt P62937)
Sequence (P62937 whole entry): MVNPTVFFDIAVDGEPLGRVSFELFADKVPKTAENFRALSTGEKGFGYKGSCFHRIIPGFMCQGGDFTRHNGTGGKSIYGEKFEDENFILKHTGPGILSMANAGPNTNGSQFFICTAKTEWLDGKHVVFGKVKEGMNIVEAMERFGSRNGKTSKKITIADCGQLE

| Structure (SMILES) | binding affinity for CyP-A |
| --- | --- |
| C/C=C/C[C@@H](C)[C@@H](O)[C@H]1C(=O)N[C@@H](CC)C(=O)N(C)[C@H](C)C(=O)N(CC)[C@@H](C(C)C)C(=O)N[C@@H](C(C)C)C(=O)N(C)[C@@H](CC(C)C)C(=O)N[C@@H](C)C(=O)N[C@H](C)C(=O)N(C)[C@@H](CC(C)C)C(=O)N(C)[C@@H](CC(C)C)C(=O)N(C)[C@@H](C(C)C)C(=O)N1C [DEBIO 025, MeAla^3EtVal^4-Cyclosporin] | retains binding affinity for CyP-A |
| C/C=C/C[C@@H](C)[C@@H](O)[C@H]1C(=O)N[C@@H](CC)C(=O)N(C)CC(=O)N(C)[C@@H]([C@@H](C)CC)C(=O)N[C@@H](C(C)C)C(=O)N(C)[C@@H](CC(C)C)C(=O)N[C@@H](C)C(=O)N[C@H](C)C(=O)N(C)[C@@H](CC(C)C)C(=O)N(C)[C@@H](CC(C)C)C(=O)N(C)[C@@H](C(C)C)C(=O)N1C [NIM 811, Melle^4-Cyclosporine] | retains binding affinity for CyP-A |
| C/C=C/C[C@@H](C)[C@@H](O)[C@H]1C(=O)N[C@@H](CC)C(=O)N(C)[C@H](SCCN(C)C)C(=O)N(C)[C@@H](CC(C)(C)O)C(=O)N[C@@H](C(C)C)C(=O)N(C)[C@@H](CC(C)C)C(=O)N[C@@H](C)C(=O)N[C@H](C)C(=O)N(C)[C@@H](CC(C)C)C(=O)N(C)[C@@H](CC(C)C)C(=O)N(C)[C@@H](C(C)C)C(=O)N1C [SCY-635, DimethylaminoethylthioSar^3-hydroxyLeu^4-Cyclosporin] | retains binding affinity for CyP-A |
